US4175081A, “5-Substituted thiadiazole ureas” (priority 1977, dated 1979)

Key:
[1] = tested on: Crabgrass (CG); test: Post-emergence herbicide test; type: in vivo, Digitaria sanquinalis; details: Digitaria sanguinalis, post-emergence, 336 h, two weeks after treatment
In short: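 Crabgrass (Digitaria sanquinalis) was surface seeded individually in 3' plastic pots of potting soil, covered with screened soil, and watered by sub-irrigation in greenhouse trays. Planting was staggered so seedlings reached the target stage together. Post-emergence sprays were applied in a hood with a removable belt and fixed nozzle, and control was visually rated two weeks after treatment.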

[2] = tested on: Crabgrass (CG); test: Pre-emergence herbicide test; type: in vivo, Digitaria sanquinalis; details: Digitaria sanguinalis, pre-emergence, 336 h, two weeks after treatment
In short: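 Crabgrass (Digitaria sanquinalis) was surface seeded in 3' plastic pots of potting soil, covered with screened soil, and watered by sub-irrigation in greenhouse trays. Pots were seeded one day before spraying in a hood with a moving belt and fixed nozzle. Plants stayed in the greenhouse on sub-irrigation, and pre-emergence control was rated visually two weeks after treatment.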

[3] = tested on: Turnip (TP); test: Pre-emergence herbicide test; type: in vivo, Brassica sp.; details: Brassica rapa, pre-emergence, 336 h, two weeks after treatment
In short: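 Turnip (Brassica sp.) seeds were surface sown in 3' plastic pots of potting soil, covered with a thin layer of screened soil, and sub-irrigated in greenhouse trays. Pots were seeded one day ahead of treatment, sprayed pre-emergence under a hood with a fixed nozzle and moving belt, then kept in the greenhouse.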

[4] = tested on: Johnson grass (JG); test: Pre-emergence herbicide test; type: in vivo, Sorgum helepense; details: Sorghum halepense, 336 h, two weeks after treatment
In short: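 Pots seeded one day before spraying; compound applied pre-emergence at 8 lbs/acre (or 4 lbs/acre) in 38 gallons/acre spray volume. Sub-irrigated in greenhouse; injury/control rated visually two weeks after treatment.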

[5] = tested on: Amaranth pigweed (PW); test: Pre-emergence herbicide test; type: in vivo, Amaranthus retroflexus; details: 336 h, two weeks after treatment
Method: (§1) All crop and weed species were planted individually in 3' plastic pots containing potting soil. Four seeds each of corn, cotton, and snapbeans were seeded to a depth equal to the diameter of the seed. All other species were surface seeded and sprinkled with screened soil in an amount sufficient to cover the seed. Immediately after planting, all pots were watered by sub-irrigation in greenhouse trays. Pots for the pre-emergence phase were seeded one day before treatment.
(§2) Compounds were tested at rates of application equivalent to 8 lbs. of actual compound per acre in a spray volume of 38 gallons per acre. Spray hood constants required to deliver the above volume are as follows:
(§3) Formulations for spray applications were prepared in 50 ml volumes with the following three components:
(§4) Formulations for the 4 lbs/acre rate were prepared by adjusting the amount of active ingredient accordingly.
(§5) Spray applications were made in a hood containing a removable belt and fixed spray nozzle. For passage through the spray hood, one pot of each specie (pre-emergence phase) was placed on the rear half of the flat. Treatments were removed to the greenhouse after spraying. Watering during the observation period was done only by sub-irrigation.
(§6) Two weeks after treatment, pre- and post-emergence injury or control was visually rated, and the results were as shown in the following tables. Pre-emergence data are provided in TABLE III and post-emergence data are provided in TABLE IV, for compounds having the formula illustrated in TABLE I. Correspondingly, pre-emergence and post-emergence data, respectively, are set forth in TABLES V AND VI, for compounds having the formula illustrated in TABLE II.

[6] = tested on: Turnip (TP); test: Post-emergence herbicide test; type: in vivo, Brassica sp.; details: Brassica rapa, post-emergence, 336 h, two weeks after treatment
In short: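 A greenhouse post-emergence herbicide test on turnip. Seeds were sown on the surface of potting soil in 3' plastic pots, lightly covered with screened soil and watered from below. Planting was timed so seedlings had 1 or 2 true leaves above the cotyledons at spraying, done in a hood with a fixed nozzle. Control or injury was scored by eye after two weeks.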

[7] = tested on: Cotton (CT); test: Pre-emergence herbicide test; type: in vivo, Gossypium hirsutum var. DPL smooth leaf; details: Gossypium hirsutum, 336 h, two weeks after treatment
In short: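 Crop and weed species seeded one day before treatment, then sprayed pre-emergence at 8 lbs actual compound per acre (also 4 lbs/acre formulations) in 38 gallons per acre. Pots kept in greenhouse with sub-irrigation only; injury or control visually rated two weeks after treatment.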

[8] = tested on: Bean (BN); test: Post-emergence herbicide test; type: in vivo, Phaseolus vulgaris var. Black Valentine; details: Phaseolus vulgaris, post-emergence, 336 h, two weeks after treatment
In short: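 Snapbean (Phaseolus vulgaris var. Black Valentine) was tested post-emergence. Four seeds were sown in 3' plastic pots of potting soil at a depth equal to the seed diameter, then sub-irrigated in greenhouse trays. Planting dates were staggered so plants were sprayed once primary leaves had expanded, with the growing point at the primary leaf nodes.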

[9] = tested on: Barnyard grass (BG); test: Pre-emergence herbicide test; type: in vivo; details: Echinochloa crus-galli, 336 h, two weeks after treatment
In short: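 Barnyard grass surface-seeded in potting soil and sprayed pre-emergence one day after seeding, at 8 or 4 lb compound/acre in 38 gal/acre spray volume. Pots kept in greenhouse with sub-irrigation only; injury or control rated visually two weeks after treatment.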

[10] = tested on: Bean (BN); test: Pre-emergence herbicide test; type: in vivo, Phaseolus vulgaris var. Black Valentine; details: Phaseolus vulgaris, 336 h, two weeks after treatment
Method: Bean (BN)--Phaseolus vulgaris var. Black Valentine
as §1, §2, §3, §4, §5, §6

[11] = tested on: Cotton (CT); test: Post-emergence herbicide test; type: in vivo, Gossypium hirsutum var. DPL smooth leaf; details: Gossypium hirsutum, post-emergence, 336 h, two weeks after treatment
In short: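 Cotton (Gossypium hirsutum var. DPL smooth leaf) was grown in 3' plastic pots of potting soil, four seeds per pot, planted at a depth equal to the seed diameter and watered by sub-irrigation. At the stage of expanded cotyledons with the first true leaf 1' long, plants were sprayed post-emergence in a hood with a fixed nozzle over a moving belt. Percent control was rated visually two weeks later.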

[12] = tested on: Corn (CN); test: Pre-emergence herbicide test; type: in vivo; details: Zea mays, 336 h, two weeks after treatment
In short: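 Four corn seeds per pot, sown at seed-diameter depth one day before spraying, got soil surface treatment at 8 lbs/acre (4 lbs/acre formulations also prepared) in 38 gallons/acre. Pots were greenhouse-held with sub-irrigation only. Injury or control was scored visually two weeks after treatment.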

Q: Which results are given for `CCCCSc1nnc(N(C)C(=O)NC)s1` [Example 90]?
A: pest or weed control at 560.425 g/ha ([1]; 0.5 lb/acre): 30%; pest or weed control at 1120.85 g/ha ([1]; 1 lb/acre): 60%; pest or weed control ([1]; 2 lb/acre): 90%; pest or weed control at 4483.4 g/ha ([1]; 4 lb/acre): 90%; pest or weed control at 560.425 g/ha ([2]; 0.5 lb/acre): 10%; pest or weed control at 1120.85 g/ha ([2]; 1 lb/acre): 10%; pest or weed control at 2241.7 g/ha ([2]; 2 lb/acre): 90%; pest or weed control at 4483.4 g/ha ([2]; 4 lb/acre): 90%; pest or weed control at 560.425 g/ha ([3]; 0.5 lb/acre): 10%; pest or weed control at 1120.85 g/ha ([3]; 1 lb/acre): 10%; pest or weed control at 2241.7 g/ha ([3]; 2 lb/acre): 60%; pest or weed control at 4483.4 g/ha ([3]; 4 lb/acre): 80%; pest or weed control at 560.425 g/ha ([4]; 0.5 lb/acre): 10%; pest or weed control at 1120.85 g/ha ([4]; 1 lb/acre): 10%; pest or weed control at 2241.7 g/ha ([4]; 2 lb/acre): 50%; pest or weed control at 4483.4 g/ha ([4]; 4 lb/acre): 50%; pest or weed control at 560.425 g/ha ([5]; 0.5 lb/acre): 10%; pest or weed control at 1120.85 g/ha ([5]; 1 lb/acre): 30%; pest or weed control at 2241.7 g/ha ([5]; 2 lb/acre): 100%; pest or weed control at 4483.4 g/ha ([5]; 4 lb/acre): 100%; pest or weed control at 560.425 g/ha ([6]; 0.5 lb/acre): 90%; pest or weed control at 1120.85 g/ha ([6]; 1 lb/acre): 100%; pest or weed control at 2241.7 g/ha ([6]; 2 lb/acre): 100%; pest or weed control at 4483.4 g/ha ([6]; 4 lb/acre): 100%; pest or weed control at 560.425 g/ha ([7]; 0.5 lb/acre): 10%; pest or weed control at 1120.85 g/ha ([7]; 1 lb/acre): 10%; pest or weed control at 2241.7 g/ha ([7]; 2 lb/acre): 30%; pest or weed control at 4483.4 g/ha ([7]; 4 lb/acre): 50%; pest or weed control at 560.425 g/ha ([8]; 0.5 lb/acre): 90%; pest or weed control at 1120.85 g/ha ([8]; 1 lb/acre): 100%; pest or weed control at 2241.7 g/ha ([8]; 2 lb/acre): 100%; pest or weed control at 4483.4 g/ha ([8]; 4 lb/acre): 100%; pest or weed control at 560.425 g/ha ([9]; 0.5 lb/acre): 10%; pest or weed control at 1120.85 g/ha ([9]; 1 lb/acre): 10%; pest or weed control at 2241.7 g/ha ([9]; 2 lb/acre): 90%; pest or weed control at 4483.4 g/ha ([9]; 4 lb/acre): 90%; pest or weed control at 560.425 g/ha ([10]; 0.5 lb/acre): 10%; pest or weed control at 1120.85 g/ha ([10]; 1 lb/acre): 10%; pest or weed control at 2241.7 g/ha ([10]; 2 lb/acre): 40%; pest or weed control at 4483.4 g/ha ([10]; 4 lb/acre): 70%; pest or weed control at 560.425 g/ha ([11]; 0.5 lb/acre): 100%; pest or weed control at 1120.85 g/ha ([11]; 1 lb/acre): 100%; pest or weed control at 2241.7 g/ha ([11]; 2 lb/acre): 100%; pest or weed control at 4483.4 g/ha ([11]; 4 lb/acre): 100%; pest or weed control at 560.425 g/ha ([12]; 0.5 lb/acre): 10%; pest or weed control at 1120.85 g/ha ([12]; 1 lb/acre): 10%; pest or weed control at 2241.7 g/ha ([12]; 2 lb/acre): 10%; pest or weed control at 4483.4 g/ha ([12]; 4 lb/acre): 30%
